Results as given in publication PMC2649009 (Journal of medicinal chemistry, 2008).
Where “and” joins values, the source holds several entries; their conditions need not be identical. Equal values may be shown once.

molecular target: T1, human GVIA iPLA2 (Homo sapiens, UniProt O60733); experiment: mixed micelle-based modified Dole assay, GVIA iPLA2 inhibition; format: biochemical; conditions: mole fraction of inhibitor in total substrate interface giving 50% inhibition
T1 sequence (O60733 1-806): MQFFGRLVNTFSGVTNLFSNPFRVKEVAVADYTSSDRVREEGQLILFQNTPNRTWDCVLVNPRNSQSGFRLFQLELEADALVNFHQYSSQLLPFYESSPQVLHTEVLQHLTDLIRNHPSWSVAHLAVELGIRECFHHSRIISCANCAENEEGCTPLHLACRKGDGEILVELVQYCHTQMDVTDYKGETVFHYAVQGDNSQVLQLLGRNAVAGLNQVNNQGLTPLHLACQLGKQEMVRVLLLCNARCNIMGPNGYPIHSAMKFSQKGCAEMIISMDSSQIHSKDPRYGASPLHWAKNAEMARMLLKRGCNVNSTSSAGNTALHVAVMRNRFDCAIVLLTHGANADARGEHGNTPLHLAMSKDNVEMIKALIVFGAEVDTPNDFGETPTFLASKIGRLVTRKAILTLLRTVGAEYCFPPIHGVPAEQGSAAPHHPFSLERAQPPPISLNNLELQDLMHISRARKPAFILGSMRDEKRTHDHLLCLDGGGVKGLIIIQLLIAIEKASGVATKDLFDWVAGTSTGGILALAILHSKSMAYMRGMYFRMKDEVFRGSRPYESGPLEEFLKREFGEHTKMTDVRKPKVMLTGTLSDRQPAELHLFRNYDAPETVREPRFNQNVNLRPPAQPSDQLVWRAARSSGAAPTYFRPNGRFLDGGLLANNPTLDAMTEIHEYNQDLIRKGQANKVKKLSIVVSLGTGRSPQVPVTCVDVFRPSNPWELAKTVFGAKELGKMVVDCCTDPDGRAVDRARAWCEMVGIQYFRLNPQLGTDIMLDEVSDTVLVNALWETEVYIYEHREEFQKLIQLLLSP

SMILES	GVIA iPLA2 XI(50)
O=C(CCCCc1ccccc1)C(F)(F)C(F)(F)F [10a, 1,1,1,2,2-Pentafluoro-7-phenyl-heptan-3-one]	0.0073 mole fraction and 0.0073 ± 0.0007 mole fraction
O=C(CCCCCc1ccccc1)C(F)(F)C(F)(F)F [10b, 1,1,1,2,2-Pentafluoro-8-phenyl-octan-3-one]	0.0065 mole fraction
O=C(CCCCCCc1ccccc1)C(F)(F)C(F)(F)F [10c, 1,1,1,2,2-Pentafluoro-9-phenyl-nonan-3-one]	0.0065 mole fraction
O=C(CCCCCc1ccccc1)C(F)(F)F [12a, 1,1,1-Trifluoro-7-phenylheptan-2-one]	0.0025 mole fraction
O=C(CCCCCCc1ccccc1)C(F)(F)F [12b, 1,1,1-Trifluoro-8-phenyloctan-2-one]	0.0018 mole fraction
CCCCCCOc1ccc(CCC(=O)C(F)(F)F)cc1 [19a, 1,1,1-Trifluoro-4-(4-hexyloxy-phenyl)-butan-2-one]	0.0328 ±0.0035 mole fraction
CCCCCCCCCCCCCCCC(=O)C(F)(F)F [compound 6, palmitoyl trifluoromethyl ketone, reference compound]	0.0195 mole fraction
CCCCCCOc1ccc(CCC(=O)C(F)(F)C(F)(F)F)cc1 [compound 21, 1,1,1,2,2-Pentafluoro-5-(4-hexyloxy-phenyl)-pentan-3-one]	0.0075 mole fraction
CCCCCCCCCCCCCCC(F)C(=O)C(F)(F)F (stereo not shown) [compound 26, 1,1,1,3-Tetrafluoro-heptadecan-2-one]	0.0011 mole fraction

same assay, conditions: ratio of XI(50) values, 26 vs 6

SMILES	potency as inhibitor of GVIA iPLA2 relative to trifluoro derivative 6
CCCCCCCCCCCCCCC(F)C(=O)C(F)(F)F (stereo not shown) [compound 26, 1,1,1,3-Tetrafluoro-heptadecan-2-one]	approximately twenty-fold
